Data set [1] has as its target T1, Human pol κ (Homo sapiens, UniProt Q9UBT6).
T1 construct: Human pol κ (residues 19–526) was purified as previously reported; made in house
T1 sequence (Q9UBT6 19-526): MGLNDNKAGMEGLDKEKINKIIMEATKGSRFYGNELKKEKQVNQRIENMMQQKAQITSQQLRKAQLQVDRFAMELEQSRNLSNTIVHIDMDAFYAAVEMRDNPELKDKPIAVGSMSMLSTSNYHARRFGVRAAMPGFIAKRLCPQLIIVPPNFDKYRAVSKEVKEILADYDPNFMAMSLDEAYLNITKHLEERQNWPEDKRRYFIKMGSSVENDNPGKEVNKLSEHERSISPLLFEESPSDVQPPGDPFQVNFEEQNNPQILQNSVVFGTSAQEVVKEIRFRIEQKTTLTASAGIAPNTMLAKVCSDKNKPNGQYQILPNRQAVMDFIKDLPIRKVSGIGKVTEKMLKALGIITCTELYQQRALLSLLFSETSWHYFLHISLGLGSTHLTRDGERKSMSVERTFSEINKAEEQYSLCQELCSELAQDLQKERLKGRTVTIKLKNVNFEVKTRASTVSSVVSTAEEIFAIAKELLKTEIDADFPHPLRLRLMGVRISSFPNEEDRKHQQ
Put plainly: Radioactive gel-based primer extension assay on non-damaged DNA, pol κ. It counts as biochemical. To be noted: primer extension, non-damaged DNA, 0.25 nM pol κ; average ± standard error, three experiments; read-out: gel: non-damaged: IC50. Here is the method:
(§1) The reactions with pol κ, pol η, and pol ι were carried out in the buffers containing 25 mM Tris-HCl, pH 7.5, 8 mM MgCl2, 10% glycerol, 100 µg/mL bovine serum albumin, and 5 mM DTT. Buffers for pol δ reactions contained 40 mM Hepes-KOH, pH 6.8, 10% glycerol, 200 µg/mL bovine serum albumin, 1 mM DTT, and 8 mM MgCl2. Final concentration of pol κ, pol η, pol ι, or pol δ in the reaction was 0.25 nM, 1 nM, 2.5 nM, or 4 nM, respectively. In this assay, a polymerase was preincubated with the compound for 15 min at room temperature. Primer extensions were then initiated by the addition of DNA substrate at final concentration of 5 nM and carried out for 30 min at room temperature in the presence of 100 µM dCTP and dGTP. The reactions were terminated by the addition of an equal volume of a dye solution containing 95% (v/v) formamide, 10 mM EDTA, 0.03% (w/v) xylene cyanol, and 0.03% (w/v) bromphenol blue. Reaction products were separated through a 15% acrylamide gel containing 8 M urea and visualized with a PhosphorImager screen. The ratio of extended primer to the total amount of primer was measured using ImageQuant 5.2 software to calculate the percentage of primer extended. IC50 values were determined by fitting the data to variable slope four-parameter equations using GraphPad Prism 5.

The target of data set [2] is T1, Human pol κ. Put plainly: Radioactive gel-based primer extension (TLS) past acrolein-derived ring-opened reduced form of γ-HOPdG, pol κ. In kind it is biochemical. To be noted: primer extension, adducted DNA, 0.25 nM pol κ; average ± standard error, three experiments; read-out: gel: ring-opened reduced form of γ-HOPdG: IC50. Here is the method: as §1
The primary role of pol κ is to bypass DNA lesions. Therefore, it was critical to establish the assays to investigate the capability of these compounds to inhibit lesion bypass activity of pol κ. Radioactive gel-based primer extension reactions were carried out using a DNA substrate containing a site-specific acrolein-derived ring-opened reduced form of γ-HOPdG, a lesion that pol κ can efficiently bypass in vitro [13].

In data set [3] the target is T2, Human pol η (residues 1–437) (Homo sapiens, UniProt Q9Y253).
T2 construct: Human pol η (residues1–437) was purified following the same procedures; made in house
T2 sequence (Q9Y253 1-437): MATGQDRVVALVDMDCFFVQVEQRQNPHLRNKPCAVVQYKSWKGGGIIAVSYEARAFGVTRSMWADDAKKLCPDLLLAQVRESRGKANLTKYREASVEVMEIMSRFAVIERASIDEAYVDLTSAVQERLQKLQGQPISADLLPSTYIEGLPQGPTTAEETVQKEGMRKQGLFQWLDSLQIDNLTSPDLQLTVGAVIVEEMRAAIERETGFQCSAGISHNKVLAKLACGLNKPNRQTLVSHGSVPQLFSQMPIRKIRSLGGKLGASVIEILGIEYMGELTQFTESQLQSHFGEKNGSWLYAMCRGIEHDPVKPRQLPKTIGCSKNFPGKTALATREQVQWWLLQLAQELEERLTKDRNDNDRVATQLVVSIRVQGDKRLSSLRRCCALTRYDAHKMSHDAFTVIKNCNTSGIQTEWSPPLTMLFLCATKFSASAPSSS
Put plainly: Radioactive gel-based primer extension assay on non-damaged DNA, pol η. It counts as biochemical. To be noted: average ± standard error, three experiments. Here is the method: as §1, with “Prism 5. […]” for “Prism 5.”

Data set [4] has as its system double-stranded DNA ladder. In words: DNA intercalation assay (agarose gel shift of DNA ladder). In kind it is binding. To be noted: 0.75 or 3 nmol compound with 1.5 nmol DNA, 1% agarose gel. Here is the method: Candesartan cilexetil or ethidium bromide was incubated with 1.5 nmol of double-stranded DNA ladder for 15 min at room temperature in the buffer containing 50 mM Tris-HCl, pH 8.0, 0.01% Tween-20, 1 mM DTT, and 40 mM NaCl. The reaction mixtures were run on 1% agarose gel and stained with ethidium bromide (0.5 µg/ml) for visualization.
Figure 7 The non-DNA-intercalating property of candesartan cilexetil. Candesartan cilexetil or ethidium bromide was incubated with double-stranded DNA ladder, and the reaction products were run on 1% agarose gel and stained with ethidium bromide. Lane 1: No compound. Lane 2: 0.75 nmol of candesartan cilexetil was incubated with 1.5 nmol DNA. Lane 3: 3 nmol of candesartan cilexetil was incubated with 1.5 nmol DNA. Lane 4: 0.75 nmol of ethidium bromide was incubated with 1.5 nmol DNA. Lane 5: 3 nmol of ethidium bromide was incubated with 1.5 nmol DNA.
(In general: In EMSA bound probe runs differently from free probe, usually more slowly.)

Data set [5] has as its system XP30RO cells (XP-V). In words: Cell survival assay, CellTiter-Glo Luminescent Cell Viability Assay, with or without UV. To be noted: CellTiter-Glo (ATP content); 24 µM, UV 1.5, 4.5 or 7.5 J/m^2. It counts as cell-based, Human. An excerpt: Supplementary file pone.0045032.s001.tif: Figure S1 Effect of candesartan cilexetil on UV-induced cytotoxicity using CellTiter-Glo Luminescent Cell Viability Assay. […] I: candesartan cilexetil. (TIF) Click here for additional data file.
(In general: ATP-based viability assays read luminescence as a measure of living cells.)

Data set [6] has as its system XP30RO cells (XP-V). In words: Cell survival assay, crystal violet, with or without UV.
Experimental: Cell survival assays were carried out using crystal violet assays and CellTiter-Glo Luminescent Cell Viability Assays. In crystal violet assays, XP30RO cells were plated into clear 96-well plates at a density of 8000 cells/mL and incubated overnight at 37°C, 5% CO2. The cells were treated with (1) inhibitor alone for 6 h or (2) UV alone or (3) inhibitor alone for 6 h followed by UV irradiation. After 2 days, cells were fixed with 4% paraformaldehyde and stained with 0.5% crystal violet dye. The dye was dissolved in 10% acetic acid and absorbance measurement was taken at OD595 nm with Infinite® M200 plate reader (Tecan, Durham, NC). For the CellTiter-Glo Luminescent Cell Viability Assays, the same procedures as crystal violet assays were used except that white/clear bottom 96-well plates were used and cell viability was measured following manufacturer's recommendations.
XP30RO cells were treated with 24 µM of candesartan cilexetil alone, UV alone at 1.5 J/m^2, 4.5 J/m^2, or 7.5 J/m^2, or in combination. Percent survival was calculated by normalizing the data using the cell survival of untreated cells. The data were obtained from three independent experiments.

The structures appear in SMILES notation.

In general, IC50 refers to the concentration at which inhibition is half-maximal. As to `CCOc1nc2cccc(C(=O)OC(C)OC(=O)OC3CCCCC3)c2n1Cc1ccc(-c2ccccc2-c2nnn[nH]2)cc1` (stereo not shown) [candesartan cilexetil, Candesartan cilexetil], the IC50 in data set [1] came to 9.2 ± 0.5 µM; in data set [2], 11 ± 1.5 µM; in data set [3], 11.2 ± 1 µM. Further, the “DNA migration pattern (intercalation)” value in data set [4] is given as “no difference in DNA migration pattern”. Besides, the “Effect on UV-induced cytotoxicity” value in data set [5] was “comparable results were obtained”; in data set [6] (crystal violet, inhibitor 6 h then UV 1.5, 4.5 or 7.5 J/m^2, candesartan cilexetil 24 µM), “potentiated the cytotoxicity of UV at higher UV doses”. Besides, the “Cell survival with compound alone” value in data set [6] (24 µM, no UV) is “cell survival was not altered”.

Values taken from paper PMC3466269, “A Comprehensive Strategy to Discover Inhibitors of the Translesion Synthesis DNA Polymerase κ” (PLoS ONE, 2012).
